Laboratory results reported in US20260125378A2, “Heterocyclic Compounds” (BeOne Medicines I GmbH, priority 2023, published 2026).

Key:
[1] = molecular target: T1, Full length DGKζ (in-house protein M1-V929) (Homo sapiens, UniProt Q13574); assay: Biochemical DGK IC50 assay (ADP-Glo, lipid micelle substrate), DGKζ; details: 1 hour preincubation, 1 hour reaction, room temperature
T1 construct: His (N); TEV site (N); made in house; host or cells: Sf9 insect cells (Bac-to-Bac baculovirus)
Method: (§1) Enzymatic reactions of DGKζ, DGKα and DGKδ were performed using ADP-Glo assay with lipid micelle substrate. […] Full length DGKα (D21-10BG, SignalChem) and full length DGKδ (D23-10G, SignalChem) were purchased. Lipid micelle was prepared by dissolving DAG (Sigma, 317505-10 MG) and PS (Sigma, P7769-100 MG) with chloroform which was furtherly removed by rotary evaporation. The obtained residue was resuspended in buffer containing 25 mM HEPES pH 7.0, 0.5 mM EDTA and 160 mM Octyl β-D glucopyranoside by vigorous mixing and ultrasonic (IID, Scientz).
(§2) The inhibition activities testing for the compound disclosed herein were carried out at room temperature in assay buffer containing 50 mM HEPES, 10 mM MgCl2, 0.01% BSA, 0.1 mM Na3VO4, 0.005% Tween-20 and 0.01 mM CaCl2). Compounds in DMSO were dispensed into wells of a black 384 well plate (Corning 4514) using D300e digital dispenser (Tecan). […] 3 μL 2× enzyme solution was added to wells. […] After 1 hour reaction, 5 μL ADP-Glo reagent (Promga V9101) was added and incubated for 40 minutes. 10 μL Kinase Detection reagent was added and incubated for 30 minutes. Luminescence was measured on a microplate reader (PHERAstar FSX, BMG labtech). The IC50S are calculated based on inhibition of enzyme activity in the presence of increasing concentrations of compounds.
Human His-TEV-DGK-zeta-pFastBac1 and human baculovirus samples was generated using the Bac- to -Bac baculovirus expression system (Invitrogen) according to the manufacturer's protocol. The DNA used for expression of DGK-zeta, have SEQ ID Nos: 1. Baculovirus amplification was achieved using infected SF9 cells at 1:2000 virus/cells ratios, and grown for 96 hours at 27° C. post-transfected.
The expression scaled up for each protein was carried out in the […] from CORNING. 4 L of 3×10^6 cells/mL Sf9 cells (Expression System, Invitrogen) grown in SF900™ II SFM insect medium (Expression System) was infected with virus stock at 1:200 virus/cells ratio, and grown for 48 hours at 27° C. post-transfection. The infected cell culture was harvested by centrifugation at 6000 rpm for 15 min 4° C. in a SORVALL LYNX6000 centrifuge. The cell pellets were stored at −80° C.
Full length human DGKζ produced as described above, was purified from Sf9 baculovirus-infected insect cell paste. The cells were lysed using sonication method, and the lysates were clarified by centrifugation.

[2] = molecular target: T2, Full length DGKα (D21-10BG, SignalChem) (Homo sapiens, UniProt P23743); assay: Biochemical DGK IC50 assay (ADP-Glo, lipid micelle substrate), DGKα; details: 1 hour preincubation, 1 hour reaction, room temperature
T2 construct: Full length DGKα (D21-10BG, SignalChem); purchased SignalChem D21-10BG
T2 sequence (P23743 whole entry): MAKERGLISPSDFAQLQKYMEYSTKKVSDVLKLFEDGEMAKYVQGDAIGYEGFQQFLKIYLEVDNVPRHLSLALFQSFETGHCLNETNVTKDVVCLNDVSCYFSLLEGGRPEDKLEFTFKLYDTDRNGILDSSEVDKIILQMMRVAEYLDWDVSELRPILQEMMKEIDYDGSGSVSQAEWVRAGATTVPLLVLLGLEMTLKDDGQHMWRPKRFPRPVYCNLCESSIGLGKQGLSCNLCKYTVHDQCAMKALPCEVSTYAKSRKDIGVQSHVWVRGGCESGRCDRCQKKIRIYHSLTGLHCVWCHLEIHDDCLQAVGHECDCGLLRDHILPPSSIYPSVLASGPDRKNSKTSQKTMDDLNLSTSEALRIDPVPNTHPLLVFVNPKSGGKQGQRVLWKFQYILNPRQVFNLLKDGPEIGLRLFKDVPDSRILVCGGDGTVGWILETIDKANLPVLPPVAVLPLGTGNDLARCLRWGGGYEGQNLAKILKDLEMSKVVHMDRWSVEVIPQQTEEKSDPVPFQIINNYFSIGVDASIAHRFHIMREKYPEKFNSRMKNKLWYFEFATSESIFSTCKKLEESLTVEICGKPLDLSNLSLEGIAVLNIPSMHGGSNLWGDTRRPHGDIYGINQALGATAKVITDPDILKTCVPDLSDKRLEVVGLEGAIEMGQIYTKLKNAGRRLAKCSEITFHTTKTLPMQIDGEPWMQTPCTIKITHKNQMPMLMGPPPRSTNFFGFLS
Method: as §1, §2

T1 sequence (Q13574 1-929 isoform Q13574-4): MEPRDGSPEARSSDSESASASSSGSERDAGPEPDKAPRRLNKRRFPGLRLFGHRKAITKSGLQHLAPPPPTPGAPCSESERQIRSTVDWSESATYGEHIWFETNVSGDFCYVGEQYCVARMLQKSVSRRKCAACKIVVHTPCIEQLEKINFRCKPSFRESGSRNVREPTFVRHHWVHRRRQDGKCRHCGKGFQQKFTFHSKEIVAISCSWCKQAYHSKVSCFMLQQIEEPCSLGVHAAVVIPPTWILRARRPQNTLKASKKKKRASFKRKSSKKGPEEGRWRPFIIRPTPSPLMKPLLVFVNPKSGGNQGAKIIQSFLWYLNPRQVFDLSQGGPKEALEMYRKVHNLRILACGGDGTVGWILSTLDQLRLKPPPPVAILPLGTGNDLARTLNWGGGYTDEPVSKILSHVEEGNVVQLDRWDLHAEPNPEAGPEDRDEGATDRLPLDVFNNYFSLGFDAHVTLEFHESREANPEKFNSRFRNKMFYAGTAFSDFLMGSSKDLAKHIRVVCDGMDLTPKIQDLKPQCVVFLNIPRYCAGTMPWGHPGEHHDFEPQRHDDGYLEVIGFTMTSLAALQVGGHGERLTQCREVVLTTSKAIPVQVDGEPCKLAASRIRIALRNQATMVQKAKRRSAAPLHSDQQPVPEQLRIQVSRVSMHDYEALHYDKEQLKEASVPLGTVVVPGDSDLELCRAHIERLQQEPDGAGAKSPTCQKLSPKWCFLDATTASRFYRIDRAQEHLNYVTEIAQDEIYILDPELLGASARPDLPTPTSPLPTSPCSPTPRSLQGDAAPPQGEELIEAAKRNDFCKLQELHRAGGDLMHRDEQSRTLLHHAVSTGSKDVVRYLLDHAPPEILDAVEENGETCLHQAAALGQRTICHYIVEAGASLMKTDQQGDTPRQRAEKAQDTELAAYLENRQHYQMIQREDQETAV

For CCn1c(CC#N)nc2c(N3C[C@@H](C)N(C(C)c4ccc(C)cc4C(F)(F)F)C[C@@H]3C)nc(=O)n(C)c21 (single isomer, unassigned) [Compound A116b], the IC50 [1] was 0.228 µM and the IC50 [2] was > 150 µM.
CCn1c(CC#N)nc2c(N3C[C@@H](C)N(C(C)c4ccc5c(c4F)OC(C)(C)O5)C[C@@H]3C)c(F)c(=O)n(C)c21 (single isomer, unassigned) [Compound A190a] was tested, and the IC50 [1] was 0.003 µM and the IC50 [2] was > 150 µM.
For CCn1c(CC#N)nc2c(N3C[C@@H](C)N(C(C)c4ccc5c(c4)OC(C)(C)CO5)C[C@@H]3C)nc(=O)n(CC)c21 (stereo partly drawn) [Compound A62, 2-(6-((2S,5R)-4-(1-(3,3-dimethyl-2,3-dihydrobenzo[b][1,4]dioxin-6-yl)ethyl)-2,5-dimethylpiperazin-1-yl)-3,9-diethyl-2-oxo-3,9-dihydro-2H-purin-8-yl)acetonitrile], the IC50 [1] was 0.279 µM and the IC50 [2] was > 150 µM.
In the case of CCn1c(CC#N)nc2c(N3C[C@@H](C)N(C(C)c4ccc5c(c4)OC(C)(C)CC5)C[C@@H]3C)nc(=O)n(C)c21 (single isomer, unassigned) [Compound A94b], the IC50 [1] is reported as 0.532 µM and the IC50 [2] is reported as > 150 µM.
With CCn1c(CC#N)nc2c(N3C[C@@H](C)N(C(C)c4cccc(CN5CCOCC5)c4)C[C@@H]3C)nc(=O)n(C)c21 (stereo partly drawn) [Compound A142, 2-(6-((2S,5R)-2,5-dimethyl-4-(1-(3-(morpholinomethyl)phenyl)ethyl)piperazin-1-yl)-9-ethyl-3-methyl-2-oxo-3,9-dihydro-2H-purin-8-yl)acetonitrile] the IC50 [1] was 6.3 µM and the IC50 [2] was > 150 µM.
In the case of CCn1c(CC#N)nc2c(N3C[C@@H](C)N(C(C)c4cc(F)c5c(c4)OC(C)(C)O5)C[C@@H]3C)nc(=O)n(C)c21 (mixture of isomers) [Compound A173, 2-(9-ethyl-6-((2S,5R)-4-(1-(7-fluoro-2,2-dimethylbenzo[d][1,3]dioxol-5-yl)ethyl)-2,5-dimethylpiperazin-1-yl)-3-methyl-2-oxo-3,9-dihydro-2H-purin-8-yl)acetonitrile], the IC50 [1] is reported as 0.044 µM and the IC50 [2] is reported as 143 µM.
Work on COCc1cc(F)ccc1C(C)N1C[C@H](C)N(c2nc(=O)n(C)c3c2nc(CC#N)n3C)C[C@H]1C (single isomer, unassigned) [Compound A27b] yielded an IC50 [1] of 0.015 µM and an IC50 [2] of 99.5 µM.
Work on CC(c1cccc(C(F)(F)F)c1)N1C[C@H](C)N(c2nc(=O)n(C)c3c2nc(CC#N)n3C)C[C@H]1C (stereo partly drawn) [Compound A41, 2-(6-((2S,5R)-2,5-dimethyl-4-(1-(3-(trifluoromethyl)phenyl)ethyl)piperazin-1-yl)-3,9-dimethyl-2-oxo-3,9-dihydro-2H-purin-8-yl)acetonitrile] yielded an IC50 [1] of 0.016 µM and an IC50 [2] of 9.7 µM.
In the case of CCn1c(CC#N)nc2c(N3C[C@@H](C)N(C(C)c4cccc(C(C)C)n4)C[C@@H]3C)nc(=O)n(C)c21 (stereo partly drawn) [Compound A123, 2-(9-ethyl-6-((2S,5R)-4-(1-(6-isopropylpyridin-2-yl)ethyl)-2,5-dimethylpiperazin-1-yl)-3-methyl-2-oxo-3,9-dihydro-2H-purin-8-yl)acetonitrile], the IC50 [1] is reported as 0.049 µM and the IC50 [2] is reported as 128 µM.
Work on CC(c1cc2c(cc1F)OCC(C)(C)O2)N1C[C@H](C)N(c2nc(=O)n(C)c3c2nc(CC#N)n3C)C[C@H]1C (single isomer, unassigned) [Compound A69a] yielded an IC50 [1] of 0.002 µM and an IC50 [2] of 1.19 µM.
CC(c1ccc2c(c1)OCCO2)N1C[C@H](C)N(c2c(F)c(=O)n(C)c3c2nc(CC#N)n3C)C[C@H]1C (single isomer, unassigned) [Compound A18b] was tested, and the IC50 [1] was 0.032 µM and the IC50 [2] was 6.38 µM.
For CC(c1ccc(F)cc1C(F)(F)F)N1C[C@H](C)N(c2cc(=O)n(C)c3[nH]c(CC#N)nc23)C[C@H]1C (single isomer, unassigned) [Compound A9a], the IC50 [1] was 8.59 µM and the IC50 [2] was > 10 µM.
CCn1c(CC#N)nc2c(N3C[C@@H](C)N(C(C)c4ccc5c(c4)OC(C)(C)CC5)C[C@@H]3C)nc(=O)n(C)c21 (single isomer, unassigned) [Compound A94a] was tested, and the IC50 [1] was 0.006 µM and the IC50 [2] was 16.6 µM.
CCn1c(CC#N)nc2c(N3C[C@@H](C)N(C(C)c4ccc5c(c4)CN(C)C5=O)C[C@@H]3C)nc(=O)n(C)c21 (stereo partly drawn) [Compound A101, 2-(6-((2S,5R)-2,5-dimethyl-4-(1-(2-methyl-1-oxoisoindolin-5-yl)ethyl)piperazin-1-yl)-9-ethyl-3-methyl-2-oxo-3,9-dihydro-2H-purin-8-yl)acetonitrile] was tested, and the IC50 [1] was 4.23 µM and the IC50 [2] was > 150 µM.
Work on CC[C@@H]1CN(c2nc(=O)n(C)c3c2nc(CC#N)n3C)[C@@H](C)CN1C(C)c1ccc2ncc(C)nc2c1 (single isomer, unassigned) [Compound A50b] yielded an IC50 [1] of 0.332 µM and an IC50 [2] of 13.6 µM.
Work on CCn1c(=O)nc(N2C[C@@H](C)N(C(C)c3ccc4ncc(C)nc4c3)C[C@@H]2C)c2nc(CC#N)n(C)c21 (single isomer, unassigned) [Compound A53a] yielded an IC50 [1] of 0.024 µM and an IC50 [2] of 60.3 µM.
In the case of COc1cc(F)ccc1C(C)N1C[C@H](C)N(c2c(F)c(=O)n(C)c3c2nc(CC#N)n3C)C[C@H]1C (stereo partly drawn) [Compound A16, 2-(6-fluoro-7-((2S,5R)-4-(1-(4-fluoro-2-methoxyphenyl)ethyl)-2,5-dimethylpiperazin-1-yl)-3,4-dimethyl-5-oxo-4,5-dihydro-3H-imidazo[4,5-b]pyridin-2-yl)acetonitrile], the IC50 [1] is reported as 0.024 µM and the IC50 [2] is reported as 58.2 µM.
CC(c1ccc2nccnc2c1)N1C[C@H](C)N(c2cc(=O)n(C)c3c2nc(CC#N)n3C)C[C@H]1C (stereo partly drawn) [Compound A1, 2-(7-((2S,5R)-2,5-dimethyl-4-(1-(quinoxalin-6-yl)ethyl)piperazin-1-yl)-3,4-dimethyl-5-oxo-4,5-dihydro-3H-imidazo[4,5-b]pyridin-2-yl)acetonitrile] gave an IC50 [1] of 0.019 µM and an IC50 [2] of 20.2 µM.
For CC(c1ccc2nccnc2c1)N1C[C@H](C)N(c2cc(=O)n(C)c3sc(CC#N)nc23)C[C@H]1C (single isomer, unassigned) [Compound A194b], the IC50 [1] was 0.873 µM and the IC50 [2] was 7.02 µM.
CCn1c(CC#N)nc2c(N3C[C@@H](C)N(C(C)c4ccc5c(c4)OC(C)(C)CC5)C[C@@H]3C)nc(=O)n(C)c21 (mixture of isomers) [Compound A94, 2-(6-((2S,5R)-4-(1-(2,2-dimethylchroman-7-yl)ethyl)-2,5-dimethylpiperazin-1-yl)-9-ethyl-3-methyl-2-oxo-3,9-dihydro-2H-purin-8-yl)acetonitrile] gave an IC50 [1] of 0.014 µM and an IC50 [2] of 23.2 µM.
CCn1c(CC#N)nc2c(N3C[C@@H](C)N(C(C)c4cccc(C5COC5)c4)C[C@@H]3C)nc(=O)n(C)c21 (stereo partly drawn) [Compound A127, 2-(6-((2S,5R)-2,5-dimethyl-4-(1-(3-(oxetan-3-yl)phenyl)ethyl)piperazin-1-yl)-9-ethyl-3-methyl-2-oxo-3,9-dihydro-2H-purin-8-yl)acetonitrile] was tested, and the IC50 [1] was 0.428 µM and the IC50 [2] was > 150 µM.
CC(c1cc(F)c2c(c1)OC(C)(C)CO2)N1C[C@H](C)N(c2nc(=O)n(C)c3c2nc(CC#N)n3C)C[C@H]1C (mixture of isomers) [Compound A68, 2-(6-((2S,5R)-4-(1-(8-fluoro-3,3-dimethyl-2,3-dihydrobenzo[b][1,4]dioxin-6-yl)ethyl)-2,5-dimethylpiperazin-1-yl)-3,9-dimethyl-2-oxo-3,9-dihydro-2H-purin-8-yl)acetonitrile] gave an IC50 [1] of 0.007 µM and an IC50 [2] of 43.8 µM.
CC(c1ccc2c(c1)OC(C)(C)CO2)N1C[C@H](C)N(c2c(F)c(=O)n(C)c3c2nc(CC#N)n3C)C[C@H]1C (single isomer, unassigned) [Compound A19b] was tested, and the IC50 [1] was 0.082 µM and the IC50 [2] was 6.94 µM.
CCn1c(CC#N)nc2c(N3C[C@@H](C)N(C(C)c4cc(Cl)c5c(c4)OC(C)(C)O5)C[C@@H]3C)nc(=O)n(C)c21 (stereo partly drawn) [Compound A171, 2-(6-((2S,5R)-4-(1-(7-chloro-2,2-dimethylbenzo[d][1,3]dioxol-5-yl)ethyl)-2,5-dimethylpiperazin-1-yl)-9-ethyl-3-methyl-2-oxo-3,9-dihydro-2H-purin-8-yl)acetonitrile] gave an IC50 [1] of 0.107 µM and an IC50 [2] of 65.8 µM.
For COC[C@H]1CN(C(C)c2ccc3c(c2)OCCO3)[C@H](C)CN1c1nc(=O)n(C)c2c1nc(CC#N)n2C (single isomer, unassigned) [Compound A11b], the IC50 [1] was 0.014 µM and the IC50 [2] was 11.9 µM.
